Structures can show the parent of a compound that is named as a salt.
Assays:
[1] = target: T1, dopamine-β-hydroxylase (DBH) (Bos taurus, UniProt P15101); experiment: biochemical; details: molar concentration at which DBH activity was halved
T1 sequence (P15101 1-610): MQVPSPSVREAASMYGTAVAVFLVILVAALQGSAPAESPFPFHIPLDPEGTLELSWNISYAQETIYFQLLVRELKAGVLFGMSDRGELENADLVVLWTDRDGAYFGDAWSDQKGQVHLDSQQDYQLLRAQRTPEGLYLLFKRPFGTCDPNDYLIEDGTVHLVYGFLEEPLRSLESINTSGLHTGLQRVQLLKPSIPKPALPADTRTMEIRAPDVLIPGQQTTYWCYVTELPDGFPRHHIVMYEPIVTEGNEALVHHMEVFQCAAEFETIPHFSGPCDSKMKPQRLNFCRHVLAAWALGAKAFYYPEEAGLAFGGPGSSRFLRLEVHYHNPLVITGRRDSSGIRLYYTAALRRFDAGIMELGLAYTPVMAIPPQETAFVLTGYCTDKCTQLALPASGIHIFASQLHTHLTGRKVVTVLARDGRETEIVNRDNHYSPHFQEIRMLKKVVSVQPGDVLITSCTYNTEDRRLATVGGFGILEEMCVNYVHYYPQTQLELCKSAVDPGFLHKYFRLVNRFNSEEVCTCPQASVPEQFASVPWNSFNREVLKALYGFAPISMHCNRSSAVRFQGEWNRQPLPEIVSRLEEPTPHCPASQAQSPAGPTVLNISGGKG
Procedure: J. J. Pisano, et al., Biochim. Biophys. Acta, 43, 566-568 (1960). Octopamine was assayed following sodium periodate oxidation to p-hydroxybenzaldehyde by measuring spectrophotometric absorbance at 330 nm.

[2] = inhibition of cytochrome P450-dependent mixed function oxidase catalyzed deethylation of ethoxycoumarin; format: in vitro ADME; details: read-out: P-450 IC50
Procedure: The compounds listed in Table I also were evaluated for their ability to inhibit cytochrome P450-dependent mixed function oxidase catalyzed deethylation of ethoxycoumarin by the procedure of […] and Poland, J. Pharmacol. Exp. Ther., 205, 596-605 (1978).

DBH = details: cited from earlier work
[3] = Ehrreich et al., 1976; cited from earlier work
[4] = test system: spontaneously hypertensive rats; experiment: mean arterial blood pressure in spontaneously hypertensive rats; format: in vivo, rat; details: 50 mg/kg intraperitoneally; for time to significant blood pressure reduction following treatment / blood pressure reduction (in words): compared to vehicle-treated controls; for blood pressure reduction (in words): within 30 minutes; for maximal blood pressure reduction: monitored for 260 minutes, indwelling cannulae in tail arteries
Procedure: Further, spontaneously hypertensive rats were treated with a suspension or solution of 3-mercapto-4-benzyl-5-[(4-methyl-piperazinyl)methyl]-1,2,4-triazole or 3-mercapto-4-(3-fluorobenzyl)-5[(4-methyl-1-piperazinyl)methyl]-1,2,4-triazole at a dose of 50 mg/kg intraperitoneally, and mean arterial blood pressure was monitored for 260 minutes using indwelling cannulae in the tail arteries. […] The maximal blood pressure reductions were approximately 25 and 40 mmHg, respectively, for each of the administered compounds.

[5] = Teresawa et al., Japan. Cir. J. 35, 339 (1971); cited from earlier work

SMILES	IC50 [1] [µM]	IC50 [2] [µM]	DBH inhibition (in words, literature) (DBH)	also measured
Fc1cc(F)cc(Cn2ccnc2S)c1 [1-(3,5-difluorobenzyl)-2-mercapto imidazole, reference compound]	1.2	12		
CN1CCN(Cc2nnc(S)n2Cc2ccccc2)CC1 [3-mercapto-4-benzyl-5-[(4-methyl-1-piperazinyl)methyl]-1,2,4-triazole hydrochloride]	90	700		
O=C(O)c1ccc(CCC(Br)CBr)cn1 (stereo not shown) [5-(3,4-dibromobutyl)picolinic acid]			DBH inhibitors	
O=C(O)c1ccc(CCCCCl)cn1 [5-(4-chlorobutyl) picolinic acid]			inhibit DBH	
CN(C)C(=S)SCc1ccc(C(=O)O)nc1 [5-(dimethyldithiocarbamoylmethyl)picolinic acid]			DBH inhibitors	
NOCc1ccccc1 [Benzyloxyamine, benzyloxyamine]			apparently act as competitive inhibitors	
CCCCc1ccc(C(N)=O)nc1 [Bupicomide, 5-(n-butyl)picolinamine]			DBH inhibitor	antihypertensive activity [3]: has antihypertensive activity
CN1CCN(Cc2nnc(S)n2Cc2ccccc2)CC1 [Example 1, 3-Mercapto-4-benzyl-5-[(4-methyl-1-piperazinyl)methyl]-1,2,4-triazole]				time to significant blood pressure reduction following treatment [4]: ≤ 30 min; blood pressure reduction (in words) [4]: significant blood pressure reductions; maximal blood pressure reduction [4]: approximately 25 mmHg
CN1CCN(Cc2nnc(S)n2Cc2cccc(F)c2)CC1 [Example 2, 3-Mercapto-4-(3-fluorobenzyl)-5-[(4-methyl-1-piperazinyl)methyl]-1,2,4-triazole]	60	375		time to significant blood pressure reduction following treatment [4]: ≤ 30 min; blood pressure reduction (in words) [4]: significant blood pressure reductions; maximal blood pressure reduction [4]: ~40 mmHg
CN1CCN(Cc2nnc(S)n2Cc2cc(F)cc(F)c2)CC1 [Example 3, 3-Mercapto-4-(3,5-difluorobenzyl)-5-[(4-methyl-1-piperazinyl)methyl]-1,2,4-triazole]	50	350		
CCCCc1ccc(C(=O)O)nc1 [Fusaric acid]				hepatotoxicity [5]: hepatotoxic
NNCc1ccccc1 [benzylhydrazine]			apparently act as competitive inhibitors	

Reference: US4761415A, “Dopamine-β-hydroxylase inhibitors” (SmithKline Beckman Corporation, priority 1986, dated 1988)
